The values that follow come from BindingDB's records for doi:10.7270/Q2DN43GX (The Scripps Research Institute Molecular Screening Center, 2007).

Molecules are shown by their SMILES.

The assay concerns the target T1, Protein Rev [8-24] (Human immunodeficiency virus 1, UniProt P05866).
T1 construct: 8-24
The experiment in a line: HIV-1 Rev-RRE RNA binding disruptors, dose response, biochemical, protein-RNA interaction (AID 842).

For the compound `CC[n+]1c(CC=Nc2ccccc2)oc2ccccc21` [3-Ethyl-2-(2-phenylamino-vinyl)-benzooxazol-3-ium], the IC50 – broadly, the midpoint of a concentration-inhibition curve – was determined as 5.66 µM.

Compound `Cc1[nH]n(-c2ccccc2)c(=O)c1N=Nc1ccc(N)cc1` [4-(4-aminophenyl)azo-5-methyl-2-phenyl-4H-pyrazol-3-one] returned an IC50 of more than 79.4 µM.
